Source: ChEMBL document CHEMBL1781893, “New potent human acetylcholinesterase inhibitors in the tetracyclic triterpene series with inhibitory potency on amyloid β aggregation” (Eur J Med Chem, 2011)

Columns and labels:
Cholinesterase = Cholinesterase (Homo sapiens, UniProt P06276)
Description: Inhibition of recombinant human serum BChE using butyrylthiocholine iodide as substrate by spectroscopic Ellmans method

Acetylcholinesterase [1] = molecular target: Acetylcholinesterase (Electrophorus electricus, UniProt O42275)
Description: Inhibition of Electrophorus electricus AChE using acetylthiocholine iodide as substrate by spectroscopic Ellmans method

Acetylcholinesterase [2] = molecular target: Acetylcholinesterase (Homo sapiens, UniProt P22303)
Chain of Acetylcholinesterase (Homo sapiens, UniProt P22303) (P22303 whole entry): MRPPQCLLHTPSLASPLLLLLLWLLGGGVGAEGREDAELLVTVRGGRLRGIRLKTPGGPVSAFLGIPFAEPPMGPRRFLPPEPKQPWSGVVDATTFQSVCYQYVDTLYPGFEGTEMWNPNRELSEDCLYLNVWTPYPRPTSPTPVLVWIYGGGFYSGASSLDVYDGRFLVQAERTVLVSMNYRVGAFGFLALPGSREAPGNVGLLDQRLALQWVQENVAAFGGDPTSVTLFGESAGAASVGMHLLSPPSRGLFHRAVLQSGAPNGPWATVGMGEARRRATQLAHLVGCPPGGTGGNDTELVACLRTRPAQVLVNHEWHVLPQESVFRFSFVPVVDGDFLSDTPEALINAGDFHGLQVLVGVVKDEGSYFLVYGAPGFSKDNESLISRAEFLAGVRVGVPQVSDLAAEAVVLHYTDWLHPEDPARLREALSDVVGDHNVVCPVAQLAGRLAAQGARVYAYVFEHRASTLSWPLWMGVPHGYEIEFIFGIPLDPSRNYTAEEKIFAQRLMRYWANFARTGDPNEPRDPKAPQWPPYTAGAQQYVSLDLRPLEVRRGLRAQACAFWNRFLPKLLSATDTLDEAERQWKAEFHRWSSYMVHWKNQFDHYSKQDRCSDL
Description: Inhibition of recombinant human AChE using acetylthiocholine iodide as substrate by spectroscopic Ellmans method

Chain of Acetylcholinesterase (Electrophorus electricus, UniProt O42275) (O42275 whole entry): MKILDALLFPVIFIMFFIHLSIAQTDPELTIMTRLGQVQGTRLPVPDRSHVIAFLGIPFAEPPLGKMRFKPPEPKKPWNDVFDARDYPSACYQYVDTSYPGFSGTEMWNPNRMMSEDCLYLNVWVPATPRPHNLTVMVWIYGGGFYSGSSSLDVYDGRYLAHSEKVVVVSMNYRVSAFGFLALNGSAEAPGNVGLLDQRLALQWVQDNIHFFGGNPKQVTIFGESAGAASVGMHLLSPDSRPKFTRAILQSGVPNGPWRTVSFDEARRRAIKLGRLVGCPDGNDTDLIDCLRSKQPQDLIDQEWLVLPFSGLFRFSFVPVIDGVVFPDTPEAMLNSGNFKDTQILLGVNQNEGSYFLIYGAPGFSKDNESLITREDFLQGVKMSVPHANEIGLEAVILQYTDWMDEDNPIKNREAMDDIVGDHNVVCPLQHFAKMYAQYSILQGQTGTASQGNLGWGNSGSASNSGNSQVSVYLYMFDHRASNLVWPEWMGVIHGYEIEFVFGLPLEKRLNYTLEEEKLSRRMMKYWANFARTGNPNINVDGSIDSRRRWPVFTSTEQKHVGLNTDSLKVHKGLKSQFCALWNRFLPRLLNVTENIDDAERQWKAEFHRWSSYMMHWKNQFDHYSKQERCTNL
Chain of Cholinesterase (P06276 whole entry): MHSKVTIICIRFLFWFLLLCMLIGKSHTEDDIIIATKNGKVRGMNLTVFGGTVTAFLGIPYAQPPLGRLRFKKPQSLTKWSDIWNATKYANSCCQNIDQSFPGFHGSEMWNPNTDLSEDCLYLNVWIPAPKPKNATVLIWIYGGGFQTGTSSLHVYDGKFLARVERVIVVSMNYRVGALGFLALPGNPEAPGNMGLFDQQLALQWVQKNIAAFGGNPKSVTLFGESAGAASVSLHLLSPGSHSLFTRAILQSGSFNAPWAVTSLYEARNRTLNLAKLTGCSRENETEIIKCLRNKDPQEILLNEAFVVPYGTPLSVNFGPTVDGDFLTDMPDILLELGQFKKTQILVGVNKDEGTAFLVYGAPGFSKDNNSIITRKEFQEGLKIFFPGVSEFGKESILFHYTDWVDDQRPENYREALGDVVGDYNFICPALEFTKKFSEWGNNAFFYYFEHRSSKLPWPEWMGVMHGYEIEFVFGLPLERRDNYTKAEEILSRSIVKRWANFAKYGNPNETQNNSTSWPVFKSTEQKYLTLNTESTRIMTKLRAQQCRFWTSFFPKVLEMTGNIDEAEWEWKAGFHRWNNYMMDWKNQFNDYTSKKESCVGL

Row | SMILES | IC50 (Cholinesterase) [nM] | IC50 (Acetylcholinesterase [1]) [nM] | IC50 (Acetylcholinesterase [2]) [nM]
1 | CCN1C[C@]2(C)[C@H](CC=C3C[C@H]4C(=O)C[C@]5(C)[C@@H]([C@H](C)N(C)C)[C@H](O)C[C@@]5(C)[C@@H]4CC[C@H]32)N=C1C(C)C | 3330 | > 10000 | > 10000
2 | CC(C)C1=N[C@H]2CC[C@]34C[C@]35C(=O)C[C@]3(C)[C@@H]([C@H](C)N(C)CCCN6C(=O)c7ccccc7C6=O)[C@H](O)C[C@@]3(C)[C@@H]5CC[C@H]4[C@]2(C)CS1 | 224 | 14 | 14
3 | COc1cccc(CN(C)[C@@H](C)[C@H]2[C@H](O)C[C@@]3(C)[C@@H]4CC[C@H]5[C@]6(C)CSC(C(C)C)=N[C@H]6CC[C@@]56C[C@@]46C(=O)C[C@]23C)c1 | 477 | 6 | 3
4 | COc1ccc(CN(C)[C@@H](C)[C@H]2[C@H](O)C[C@@]3(C)[C@@H]4CC[C@H]5[C@]6(C)CSC(C(C)C)=N[C@H]6CC[C@@]56C[C@@]46C(=O)C[C@]23C)cc1 | 217 | 18 | 9
5 | CC(C)C1=N[C@H]2CC[C@]34C[C@]35C(=O)C[C@]3(C)[C@@H]([C@H](C)N(C)Cc6ccccc6C(F)(F)F)[C@H](O)C[C@@]3(C)[C@@H]5CC[C@H]4[C@]2(C)CS1 | > 10000 | 24 | 11
6 | CC(C)C1=N[C@H]2CC[C@]34C[C@]35C(=O)C[C@]3(C)[C@@H]([C@H](C)N(C)Cc6cccc(C(F)(F)F)c6)[C@H](O)C[C@@]3(C)[C@@H]5CC[C@H]4[C@]2(C)CS1 | > 10000 | 9 | 3
7 | CC(C)C1=N[C@H]2CC[C@]34C[C@]35C(=O)C[C@]3(C)[C@@H]([C@H](C)N(C)Cc6ccc(C(F)(F)F)cc6)[C@H](O)C[C@@]3(C)[C@@H]5CC[C@H]4[C@]2(C)CS1 | > 10000 | 7 | 3
8 | CC(C)C1=N[C@H]2CC[C@]34C[C@]35C(=O)C[C@]3(C)[C@@H]([C@H](C)N(C)CCN6C(=O)c7ccccc7C6=O)[C@H](O)C[C@@]3(C)[C@@H]5CC[C@H]4[C@]2(C)CS1 | 653 | 24 | 70
9 | CC(C)C1=N[C@H]2CC[C@]34C[C@]35C(=O)C[C@]3(C)[C@@H]([C@H](C)N(C)C)[C@H](O)C[C@@]3(C)[C@@H]5CC[C@H]4[C@]2(C)CS1 | 5370 | 38 | 60
10 | CN[C@@H](C)[C@H]1[C@H](O)C[C@@]2(C)[C@@H]3CC[C@H]4[C@]5(C)CSC(C(C)C)=N[C@H]5CC[C@@]45C[C@@]35C(=O)C[C@]12C | 1340 | 45 | 76
11 | CC(=O)N(C)[C@@H](C)[C@H]1[C@H](O)C[C@@]2(C)[C@@H]3CC[C@H]4[C@]5(C)CSC(C(C)C)=N[C@H]5CC[C@@]45C[C@@]35C(=O)C[C@]12C | > 10000 | 139 | 298
12 | CC(C)C1=N[C@H]2CC[C@]34C[C@]35C(=O)C[C@]3(C)[C@@H]([C@H](C)N(C)C(=O)c6ccccc6)[C@H](O)C[C@@]3(C)[C@@H]5CC[C@H]4[C@]2(C)CS1 | > 1000 | 37 | 43
13 | CC(C)C1=N[C@H]2CC[C@]34C[C@]35C(=O)C[C@]3(C)[C@@H]([C@H](C)N(C)C(=O)OC(C)(C)C)[C@H](O)C[C@@]3(C)[C@@H]5CC[C@H]4[C@]2(C)CS1 | > 10000 | 186 | 159
14 | CC(C)C1=N[C@H]2CC[C@]34C[C@]35C(=O)C[C@]3(C)[C@@H]([C@H](C)N(C)Cc6ccccc6)[C@H](O)C[C@@]3(C)[C@@H]5CC[C@H]4[C@]2(C)CS1 | 554 | 13 | 7
15 | CC(C)C1=N[C@H]2CC[C@]34C[C@]35C(=O)C[C@]3(C)[C@@H]([C@H](C)N(C)CCc6ccccc6)[C@H](O)C[C@@]3(C)[C@@H]5CC[C@H]4[C@]2(C)CS1 | 501 | 14 | 20
16 | CC(C)C1=N[C@H]2CC[C@]34C[C@]35C(=O)C[C@]3(C)[C@@H]([C@H](C)N(C)CCCc6ccccc6)[C@H](O)C[C@@]3(C)[C@@H]5CC[C@H]4[C@]2(C)CS1 | 1430 | 79 | 76
17 | COc1ccccc1CN(C)[C@@H](C)[C@H]1[C@H](O)C[C@@]2(C)[C@@H]3CC[C@H]4[C@]5(C)CSC(C(C)C)=N[C@H]5CC[C@@]45C[C@@]35C(=O)C[C@]12C | 333 | 12 | 6
18 | C[C@@H]([C@H]1[C@H](O)C[C@@]2(C)[C@@H]3CC[C@H]4[C@]5(C)COC(C(F)(F)F)=N[C@H]5CC[C@@]45C[C@@]35C(=O)C[C@]12C)N(C)C | > 10000 | > 10000 | > 10000
19 | C[C@@H]([C@H]1[C@H](O)C[C@@]2(C)[C@@H]3CC[C@H]4[C@]5(C)COC(C(C)(C)F)=N[C@H]5CC[C@@]45C[C@@]35C(=O)C[C@]12C)N(C)C | > 10000 | 336 | 744
20 | C[C@@H]([C@H]1[C@H](O)C[C@@]2(C)[C@@H]3CC[C@H]4[C@]5(C)COC(C(F)(C(F)(F)F)C(F)(F)F)=N[C@H]5CC[C@@]45C[C@@]35C(=O)C[C@]12C)N(C)C | > 10000 | 1700 | 3000
21 | CC(C)C1=N[C@H]2CC[C@]34C[C@]35C(=O)C[C@]3(C)[C@@H]([C@H](C)N(C)C)[C@H](O)C[C@@]3(C)[C@@H]5CC[C@H]4[C@]2(C)CN1C | 2950 | > 10000 | > 10000
22 | CC(C)C1=N[C@H]2CC[C@]34C[C@]35C(=O)C[C@]3(C)[C@@H]([C@H](C)N(C)C)[C@H](O)C[C@@]3(C)[C@@H]5CC[C@H]4[C@]2(C)N1 | 7220 | > 10000 | > 10000
23 | CC(C)C1=N[C@H]2CC[C@]34C[C@]35C(=O)C[C@]3(C)[C@@H]([C@H](C)N(C)C)[C@H](O)C[C@@]3(C)[C@@H]5CC[C@H]4[C@]2(C)C=C1 | 679 | 16 | 25
24 | CC(C)C1=N[C@H]2CC[C@]34C[C@]35C(=O)C[C@]3(C)[C@@H]([C@H](C)N(C)C)[C@H](O)C[C@@]3(C)[C@@H]5CC[C@H]4[C@]2(C)CC1 | > 10000 | 294 | 618
25 | CC(C)C1=N[C@H]2CC[C@]34C[C@]35C(=O)C[C@]3(C)[C@@H]([C@H](C)N(C)C)[C@H](O)C[C@@]3(C)[C@@H]5CC[C@H]4[C@]2(C)CN1 |  | > 10000 | 
